Data: patent publication US10800806B2, “Sterol derivatives and use thereof for treating diseases involving transformed astrocyte cells or for treating malignant haemopathies” (BETA INNOV, priority 2012, dated 2020)

Assays:
[1] = tested on: liver cancer cells (ATCC-HB-8065); experiment: Activity in vitro on liver cancer cells; assay type: cell-based, human; details: 30 μM, ethanolic form
Experimental: They were obtained from ATCC (ref. ATCC-HB-8065). The culture medium consists of MEM (Gibco, USA; ref. 51200) and 10% (v/v) FCS. The doubling time is 60 h. • Prostate cancer cells
The cancer cells used are from liver (ref. ATCC-HB-8065), prostate (ref. ATCC-HTB-81), breast (ref. ATCC-HTB-19) cancer cells, and from colon cancer cells (ECACC-HT29/219) of human origin, mentioned above.

[2] = tested on: LDH from Lactobacillus leichmannii (LL); experiment: Inhibition of LDH activity, in gel assay after IEF; assay type: biochemical; details: ethanolic form, 36 mM
Experimental: The measurements of the activity of LDH and of its inhibition by a routine inhibitor, oxamate (23), were validated by the spectrometric method (24) using the purified LDH of Lactobacillus leichmannii (LL) (Sigma) as standard.
Next, the LDH activities and their inhibition were detected by the “in gel assay” technique (25). The source of activity used was LDH LL and LDH, partially purified, from human GBM lines U87-MG (LDH GBM). “In gel assay” detection was carried out after isoelectric focusing (IEF) on electrophoresis gels of the LDH LL and LDH GBM samples.
The mini-gels of 7.5 (T %) and of 2.6 (C %) are poured into Pi with the Ampholines (BioRad) making it possible to form a pH gradient in the range from 7 to 5 after pre-focusing in a cold chamber. The containers used are of the mini-protean 3 type (BioRad). […]
The LDH activity is detected by the lactate/NAD/MTT/phenazine methosulphate system (formation of a precipitate of the formazan type in the IEF gel); this system is described in reference (25). […]
The activity of LDH is detected by the “in gel assay” technique on IEF electrophoresis gels, which were described in the section “A/ PROTOCOLS 6)” (25); the precision of this technique is 0.2 unit of pH. The activity of LDH is detected by a dark blue precipitate, of the formazan type, the site where LDH activity is located.

C6 cells = experiment: Anti-GBM activity in vitro on cultures of C6 cells (cell counting, protein assay, MTT test); assay type: cell-based, rat; details: 15 μm, ethanol 3%
Experimental: Plastic flat-bottomed 96-well culture plates (NUNC, USA) treated for cell culture (Sigma-Aldrich, ref. 114754) are used; 1500 cells are seeded per well in 200 μl of culture medium. At the time of treatment, 100 μl of pure culture medium, 100 μl of culture medium containing ethanol, or liposomes, or 100 μl of culture medium containing the active ingredients are added per well; the final volume of the culture medium, after treatment, is therefore 300 μl for all the wells.
The cultures are incubated in a Sanyo incubator (Japan, model MCO-19AlC-UV) at 37° C. and in an atmosphere with 5% CO2 and saturated in humidity. The cells are observed with an inverted microscope (Nikon Eclipse TS100, Japan) and the photographs are taken with a camera (DIGITAL camera with c-mount; LABOVER, France). The culture hood is a microbiological safety hood MSC (thermo SCIENTIFIC, model HERA SAFE KS12, France).
The type C6 cell line was obtained by Benda et al. (16) from rat brain tumours, induced by N-methylnitrosourea. This cell type is used as “in vitro” and “in vivo” model for evaluating anti-GBM potential. The lines originate from the former Strasbourg Neurochemistry Centre (U44 INSERM and UPR 416 CNRS).
The culture medium is made up of 70% Minimum Essential Medium (MEM; (Fischer Scientifique, ref. 61100) and 30% Hanks solution (SIGMA, ref. H 9269). The following are added to the culture medium: foetal calf serum (FCS; Fischer Scientifique, ref. 10108165) at a final concentration of 5% (v/v), an antibiotic solution of ciprofloxacin hydrochloride 5 μg/mL (EUROMEDEX, ref. UC5074) and a solution of Fungizone 2.5 μg/mL (INVITROGEN, ref. 15290-026). The doubling time of this cell type is 17 h. • GBM lines of human origin
The active ingredients are either dissolved in absolute ethanol (AnalaR, NORMAPUR, VWR, France) or in the form of a liposomal solution, such as 10 μl of the stock solutions diluted in 990 μl and then added to the culture wells (200 μl of culture medium) giving concentrations of 30.0, 15.0, 7.5 and 3.3 μM (final volume of culture medium per well BI-GBM: 300 μl).
When the active ingredients are in ethanolic solution, the culture medium contains […] ethanol (v/v).
A method of cell counting on photographs was used.
For example, in the case of the cultures in 96-well plates and as a function of the magnification of the microscope used (objectives×10 or ×20, oculars×10), a photograph taken represents a field of view with a diameter equal to 1/5 of the diameter of a well. Therefore the total number of cells in a well is equal to […] the number of cells per photograph. This technique was compared with a standard technique (trypsinization of the cell layer, centrifugation of the cells, suspension of the cells in physiological saline solution and counting with a THOMA cell) in the case of the C6 cells. The results obtained are identical for both methods.
The culture medium is withdrawn from each well and 50 μl of Laemmli buffer (0.1 ml of Tris, 0.8 ml of glycerol, 1.6 mL of 10% SDS, 8 ml q.s.f ultrapure water) is added per well.
In control wells, 10 μl of a solution of bovine serum albumin range (crystallized BSA, Sigma) is added; the range is from 0 to 20 μg per well. The wells are then supplemented with 40 μl of Laemmli buffer. Finally, 200 μl of solution of BCA reagent is added (Pierce, USA; BCA Protein Assay Kit; ThemoScientific, France).
The culture plates are incubated for 30 min at 37° C. The optical density for each well is read and quantified by a plate reader (BioRad, USA, iMark Microplate reader 12222) at 570 nm.
This test makes it possible to detect the cellular respiration, especially the mitochondrial respiration. The stock solution of tetrazolium salt MTT (3-(4,5-dimethylthiazol-2-yl)-2,5-diphenyl tetrazolium bromide, Sigma-Aldrich, USA, ref. M5655) is prepared with 10 mg of MIT/ml of PBS buffer (phosphate-buffered saline, SIGMA, ref. D 1408). […]

Row | Compound | effect on cellular division and respiration [1] | inhibition of the enzymatic activity of LDH LL [2] | Live residual cells (C6 cells) [%]
1 | CC(=O)OC1C=C2CC(OC(=O)C3COC(C)(C)O3)CCC2(C)C2CCC3(C)C(C(C)CCCC(C)C)CCC3C12 (stereo not drawn) [Molecule 2.b, 7-acetoxy-10,13-dimethyl-17-(6-methylheptan-2-yl)-2,3,4,7,8,9,10,11,12,13,14,15,16,17-tetradecahydro-1H-cyclopenta[a]phenanthren-3-yl 2,2-dimethyl-1,3-dioxolane-4-carboxylate] | no effect | almost completely | 
2 | CC(C)CCCC(C)C1CCC2C3C(OC(=O)OC(C)(C)C)C=C4CC(OC(=O)C5COC(C)(C)O5)CCC4(C)C3CCC12C (stereo not drawn) [Molecule 2.a, 7-((tert-butoxycarbonyl)oxy)-10,13-dimethyl-17-(6-methylheptan-2-yl)-2,3,4,7,8,9,10,11,12,13,14,15,16,17-tetradecahydro-1H-cyclopenta[a]phenanthren-3-yl 2,2-dimethyl-1,3-dioxolane-4-carboxylate] |  |  | 100
